Data taken from patent US20240226106A1, “INHIBITORS OF PLASMA KALLIKREIN” (SHIRE HUMAN GENETIC THERAPIES, INC., priority 2021, published 2024).

Target: human activated kallikrein enzyme (Homo sapiens, UniProt P03952)
Test: Inhibition of human activated plasma kallikrein, fluorogenic peptide substrate (PFR-AMC), 500 pM enzyme format
Assay type: biochemical
Conditions: 500 pM activated kallikrein, 30 min preincubation, 10 min reaction, room temperature, read-out: Primary Dose Response Assay: Average EC50
Procedure: Compounds were evaluated for inhibition of the human activated kallikrein enzyme in two formats of an assay employing a fluorogenic peptide substrate. In one assay format, the concentrations of reagents were as follows: 20 mM Tris pH 7.5, 1 mM EDTA, 150 mM sodium chloride, 0.1% PEG-400, 0.1% Triton X-100, 500 pM activated kallikrein enzyme, […] Pro-Phe-Arg-7-amido-4-methylcoumarin (PFR-AMC) substrate. Prior to reaction initiation with substrate, enzyme and inhibitors were preincubated for 30 min at room temperature. After initiation with substrate, reactions were incubated for 10 min at room temperature and fluorescence emission at 460 nm from 380 nm excitation measured with a microplate reader. In another assay format, the concentrations of reagents were as follows: 20 mM Tris pH 7.5, 1 mM EDTA, 150 mM sodium chloride, 0.1% PEG-400, 0.1% Triton X-100, 5 pM activated kallikrein enzyme, 300 uM PFR-AMC substrate. Prior to reaction initiation with substrate, enzyme and inhibitors were preincubated for 30 min at room temperature. After initiation with substrate, reactions were incubated for 18 hr at room temperature and fluorescence emission at 460 nm from 380 nm excitation measured with a microplate reader.

Sequence of human activated kallikrein enzyme (P03952 391-638 limits assumed): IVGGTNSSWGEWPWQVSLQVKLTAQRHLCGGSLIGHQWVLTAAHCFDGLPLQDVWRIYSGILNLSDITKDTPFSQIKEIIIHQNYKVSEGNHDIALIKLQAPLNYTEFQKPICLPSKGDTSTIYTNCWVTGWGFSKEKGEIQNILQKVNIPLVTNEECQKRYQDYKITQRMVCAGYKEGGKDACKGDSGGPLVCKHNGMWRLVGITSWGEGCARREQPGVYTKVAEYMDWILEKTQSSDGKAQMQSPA
Sequence of human activated kallikrein enzyme (P03952 20-390 partner limits assumed): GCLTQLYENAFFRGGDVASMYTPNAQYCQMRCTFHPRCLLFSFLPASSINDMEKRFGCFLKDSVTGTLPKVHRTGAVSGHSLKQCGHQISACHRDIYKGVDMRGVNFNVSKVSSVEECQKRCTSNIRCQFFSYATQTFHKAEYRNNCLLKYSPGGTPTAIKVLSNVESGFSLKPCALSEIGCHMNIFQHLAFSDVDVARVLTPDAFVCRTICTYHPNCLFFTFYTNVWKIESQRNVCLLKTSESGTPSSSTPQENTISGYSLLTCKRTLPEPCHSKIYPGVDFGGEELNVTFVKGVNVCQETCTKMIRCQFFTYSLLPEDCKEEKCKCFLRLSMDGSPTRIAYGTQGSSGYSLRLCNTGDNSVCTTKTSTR

First: O=C(Nc1cc(NCc2ccc(Cn3cc(Cl)ccc3=O)cc2)cnn1)[C@H]1C[C@@H]1c1cccc(Cl)c1 (racemic) [Example 17, rac-(1S*,2S*)—N-(5-((4-((5-chloro-2-oxopyridin-1 (2H)-yl)methyl)benzyl)amino)pyridazin-3-yl)-2-(3-chlorophenyl)cyclopropane-1-carboxamide]
Second: O=C(Nc1cc(NCc2ccc(Cn3ccccc3=O)cc2)cnn1)[C@H]1C[C@H]1c1cccc(Cl)c1 (racemic) [Example 19, rac-(1R*,2S*)-2-(3-chlorophenyl)-N-(5-((4-((2-oxopyridin-1 (2H)-yl)methyl)benzyl)amino)pyridazin-3-yl)cyclopropane-1-carboxamide]
The EC50 of the first is lower: 2.5 to 25 nM for the first, > 500 nM for the second.

First: O=C(Nc1cc(NCc2nc3ccc(C4CC4)cn3n2)ncn1)[C@H]1C[C@@H]1c1cccc(Cl)c1 [Example 26, (1S,2S)-2-(3-chlorophenyl)-N-(6-(((6-cyclopropyl-[1,2,4]triazolo[1,5-a]pyridin-2-yl)methyl)amino)pyrimidin-4-yl)cyclopropane-1-carboxamide]
Second: O=C(Nc1cc(NCc2nc3ccc(C4CC4)nn3n2)ncn1)[C@H]1C[C@@H]1c1cccc(Cl)c1 [Example 28, (1S,2S)-2-(3-chlorophenyl)-N-(6-(((6-cyclopropyl-[1,2,4]triazolo[1,5-b]pyridazin-2-yl)methyl)amino)pyrimidin-4-yl)cyclopropane-1-carboxamide]
The EC50 of the first is lower: 25 to 500 nM for the first, > 500 nM for the second. The first is the more potent here.

Compared with O=C(Nc1cc(C2(c3ccc(Cn4cc(Cl)ccc4=O)cc3)CC2)cnn1)[C@H]1C[C@@H]1c1cccc(Cl)c1 (racemic) [Example 20, rac-(1S*,2S*)—N-(5-(1-(4-((5-chloro-2-oxopyridin-1 (2H)-yl)methyl)phenyl)cyclopropyl)pyridazin-3-yl)-2-(3-chlorophenyl)cyclopropane-1-carboxamide], O=C(Nc1cc(NCc2ccc(Cn3ccccc3=O)cc2)cnn1)[C@H]1C[C@@H]1c1cccc(Cl)c1 (single isomer, unassigned) [Example 15] is lower in EC50: > 500 nM for the first, 25 to 500 nM for the second.

First: Cc1ccnc([C@H]2C[C@@H]2C(=O)Nc2cc(N[C@@H](C)c3nc4c(N5CC(=O)N(C)C5=O)cc(C5CC5)cn4n3)ncn2)n1 (single isomer, unassigned; isomer 2) [Example 108]
Second: O=C1CN(c2cc(C3CC3)cn3nc(CNc4cc(NC(=O)[C@H]5C[C@@H]5c5cc(Cl)ccn5)ncn4)nc23)C(=O)N1 [Example 68, (1S,2S)-2-(4-chloropyridin-2-yl)-N-(6-(((6-cyclopropyl-8-(2,4-dioxoimidazolidin-1-yl)-[1,2,4]triazolo[1,5-a]pyridin-2-yl)methyl)amino)pyrimidin-4-yl)cyclopropane-1-carboxamide]
The EC50 of the first is higher: 2.5 to 25 nM for the first, < 2.5 nM for the second.

O=C(Nc1cnn(Cc2ccc(Cn3cccn3)cc2)c1)[C@H]1C[C@@H]1c1cccc(Cl)c1 (racemic) [Example 10, rac-(1S*,2S*)—N-(1-(4-((1H-pyrazol-1-yl)methyl)benzyl)-1H-pyrazol-4-yl)-2-(3-chlorophenyl)cyclopropane-1-carboxamide] and O=C(Nc1cc(OCc2ccc(Cn3cccn3)cc2)cnn1)[C@H]1C[C@@H]1c1cncc(Cl)c1 (racemic) [Example 1, rac-(1S*,2S*)—N-(5-((4-((1H-pyrazol-1-yl)methyl)benzyl)oxy)pyridazin-3-yl)-2-(5-chloropyridin-3-yl)cyclopropane-1-carboxamide] cannot be ordered by EC50: > 500 nM for the first, > 500 nM for the second.

CN1CCN(c2cc(C3CC3)cn3nc(CNc4cc(NC(=O)[C@H]5C[C@@H]5c5cccc(Cl)c5)ncn4)nc23)CC1 [Example 58, (1S,2S)-2-(3-chlorophenyl)-N-(6-(((6-cyclopropyl-8-(4-methylpiperazin-1-yl)-[1,2,4]triazolo[1,5-a]pyridin-2-yl)methyl)amino)pyrimidin-4-yl)cyclopropane-1-carboxamide] and O=C(Nc1cc(NCc2nc3c(N4CCOC4=O)cc(C4CC4)cn3n2)ncn1)[C@H]1C[C@@H]1c1cccc(Cl)c1 [Example 43, (1S,2S)-2-(3-chlorophenyl)-N-(6-(((6-cyclopropyl-8-(2-oxooxazolidin-3-yl)-[1,2,4]triazolo[1,5-a]pyridin-2-yl)methyl)amino)pyrimidin-4-yl)cyclopropane-1-carboxamide] fall in the same range of EC50: 2.5 to 25 nM for the first, 2.5 to 25 nM for the second.

First: Cc1ccnc([C@H]2C[C@@H]2C(=O)Nc2cc(N3C[C@@H](O)CC3c3ccc(N4CC5CC5C4)nc3)ncn2)n1 (relative stereo) [Example 69, rac-(1S*,2S*)—N-(6-((4S)-2-(6-(3-azabicyclo[3.1.0]hexan-3-yl)pyrin-3-yl)-4-hydroxypyrrolidin-1-yl)pyrimidin-4-yl)-2-(4-methylpyrimidin-2-yl)cyclopropane-1-carboxamide]
Second: Cc1ccnc([C@H]2C[C@@H]2C(=O)Nc2cc(N3C[C@@H](O)C[C@H]3c3ccc(N4CC5CC5C4)nc3)ncn2)n1 (mixture of isomers) [Example 70, rac-(1S*,2S*)—N-(6-((2S*,4S)-2-(6-(3-azabicyclo[3.1.0]hexan-3-yl)pyridin-3yl)-4-hydroxypyrrolidin-1-yl)pyrimidin-4-yl)-2-(4-methylpyrimidin-2-yl)cyclopropane-1-carboxamide]
The EC50 of the first is lower: 2.5 to 25 nM for the first, > 500 nM for the second.

First: O=C(Nc1cc(OCc2ccc(Cn3cccn3)cc2)cnn1)[C@H]1C[C@@H]1c1cccnc1Cl (racemic) [Example 5, rac-(1S*,2S*)—N-(5-((4-((1H-pyrazol-1-yl)methyl)benzyl)oxy)pyridazin-3-yl)-2-(2-chloropyridin-3-yl)cyclopropane-1-carboxamide]
Second: Nc1ncccc1[C@H]1C[C@@H]1C(=O)Nc1cc(OCc2ccc(Cn3cccn3)cc2)cnn1 (racemic) [Example 8, rac-(1S*,2S*)—N-(5-((4-((1H-pyrazol-1-yl)methyl)benzyl)oxy)pyridazin-3-yl)-2-(2-aminopyridin-3-yl)cyclopropane-1-carboxamide]
The EC50 of the first is higher: > 500 nM for the first, 25 to 500 nM for the second. The second is the more potent here.

O=C(Nc1cc(OCc2csc(-c3ccccc3)n2)cnn1)[C@H]1C[C@@H]1c1cccc(Cl)c1 (racemic) [Example 2, rac-(1S*,2S*)-2-(3-chlorophenyl)-N-(5-((2-phenylthiazol-4-yl)methoxy)pyridazin-3-yl)cyclopropane-1-carboxamide] and O=C(Nc1cc(OCc2ccc(-c3ncc[nH]3)cc2)cnn1)[C@H]1C[C@@H]1c1cccc(Cl)c1 (racemic) [Example 13, rac-(1S*,2S*)—N-(5-((4-(1H-imidazol-2-yl)benzyl)oxy)pyridazin-3-yl)-2-(3-chlorophenyl)cyclopropane-1-carboxamide] cannot be ordered by EC50: > 500 nM for the first, > 500 nM for the second.

O=C(Nc1cc(NCc2cnc3ccc(C4CC4)cc3c2)ccn1)[C@H]1C[C@@H]1c1cccc(Cl)c1 [Example 34, (1S,2S)-2-(3-chlorophenyl)-N-(4-(((6-cyclopropylquinolin-3-yl)methyl)amino)pyridin-2-yl)cyclopropane-1-carboxamide] and CCOC(=O)CCc1cc(C2CC2)cc2cc(CNc3cc(NC(=O)[C@H]4C[C@@H]4c4cccc(Cl)c4)ncn3)nn12 [Example 47, ethyl 3-(2-(((6-((1S,2S)-2-(3-chlorophenyl)cyclopropane-1-carboxamido)pyrimidin-4-yl)amino)methyl)-5-cyclopropylpyrazolo[1,5-a]pyridin-7-yl)propanoate] fall in the same range of EC50: 2.5 to 25 nM for the first, 2.5 to 25 nM for the second.

First: O=C(Nc1cc(OCc2ccc(-n3ccnc3)cc2)cnn1)[C@H]1C[C@@H]1c1cccc(Cl)c1 (racemic) [Example 12, rac-(1S*,2S*)—N-(5-((4-(1H-imidazol-1-yl)benzyl)oxy)pyridazin-3-yl)-2-(3-chlorophenyl)cyclopropane-1-carboxamide]
Second: Cc1ccnc([C@H]2C[C@@H]2C(=O)Nc2cc(OCc3cc(F)c4ncc(Cl)cc4c3)cnn2)n1 [Example 92, (1S,2S)—N-(5-((3-chloro-8-fluoroquinolin-6-yl)methoxy)pyridazin-3-yl)-2-(4-methylpyrimidin-2-yl)cyclopropane-1-carboxamide]
The EC50 of the first is higher: > 500 nM for the first, 2.5 to 25 nM for the second. The second is the more potent here.

Compared with CC(C)n1ccc2nc(CNc3cc(NC(=O)[C@H]4C[C@@H]4c4cccc(Cl)c4)ncn3)cn2c1=O [Example 38, (1S,2S)-2-(3-chlorophenyl)-N-(6-(((6-isopropyl-5-oxo-5,6-dihydroimidazo[1,2-c]pyrimidin-2-yl)methyl)amino)pyrimidin-4-yl)cyclopropane-1-carboxamide], N#Cc1ccc(Cl)cc1[C@H]1C[C@@H]1C(=O)Nc1cc(NCc2nc3ccc(C4CC4)cn3n2)ncn1 (racemic) [Example 24, rac-(1S*,2S*)-2-(5-chloro-2-cyanophenyl)-N-(6-(((6-cyclopropyl-[1,2,4]triazolo[1,5-a]pyridin-2-yl)methyl)amino)pyrimidin-4-yl)cyclopropane-1-carboxamide] is lower in EC50: 25 to 500 nM for the first, 2.5 to 25 nM for the second.

First: Cc1ccnc([C@@H]2C[C@H]2C(=O)Nc2cc(N3C[C@@H](O)C[C@@H]3c3cn4cc(C5CC5)cnc4n3)ncn2)c1 (single isomer, unassigned) [Example 74, (1S*,2S*)—N-(6-((2R,4S)-2-(6-cyclopropylimidazo[1,2-a]pyrimidin-2-yl)-4-hydroxypyrrolidin-1-yl)pyrimidin-4-yl)-2-(4-methylpyridin-2-yl)cyclopropane-1-carboxamide]
Second: Cc1ccnc([C@H]2C[C@@H]2C(=O)Nc2cc(N3C[C@@H](O)C[C@@H]3c3cn4cc(C5CC5)cnc4n3)ncn2)c1F (relative stereo) [Example 76, rac-(1S*,2S*)—N-(6-((2R,4S)-2-(6-cyclopropylimidazo[1,2-a]pyrimidin-2-yl)-4-hydroxypyrrolidin-1-yl)pyrimidin-4-yl)-2-(3-fluoro-4-methylpyridin-2-yl)cyclopropane-1-carboxamide]
The EC50 of the first is higher: > 500 nM for the first, 25 to 500 nM for the second. The second is the more potent here.
